Legend:
IMPα/β1:C = IMPα/β1:C (Mus musculus, UniProt P52293); assay type: binding
VEEV-TC83luc = assay type: cell-based, Venezuelan equine encephalitis virus
[1] = test system: C-GFP nuclear import in HeLa cells; assay type: cell-based
[2] = test system: C-GFP nuclear accumulation in HeLa cells; assay type: cell-based
[3] = test system: GFP-T-ag nuclear accumulation in HeLa cells; assay type: cell-based
[4] = test system: VEEV C localization in infected Vero cells; assay type: cell-based
TC83-WT = assay type: cell-based, Venezuelan equine encephalitis virus
[5] = test system: IMPα/β1 binding to HIV-1 integrase; details: cited from earlier work
HIV-1 = details: cited from earlier work
VEEV = details: cited from earlier work

Compound	IC50 (IMPα/β1:C) [µM]	EC50 (VEEV-TC83luc) [µM]	initial rate of C nuclear import [1]	maximal recovery of nuclear fluorescence (Fn(rec) max), lower than in DMSO alone treated cells [1] [%]	nuclear accumulation of C-GFP [2]	nuclear accumulation of GFP-T-ag [3]	CC50 (Vero cells) [µM]	nuclear C staining in infected cells [4]	titer of wild-type TC83 (TC83-WT)	inhibition of IMPα/β1 binding to HIV-1 integrase [5]	anti-HIV-1 activity (HIV-1)	activity against VEEV (VEEV)
O=C(c1cc(C(=O)N2CCN(c3cccc(Cl)c3)CC2)cc(C(=O)N2CCN(c3cccc(Cl)c3)CC2)c1)N1CCN(c2cccc(Cl)c2)CC1 [AK-968/15362127]	32 ± 4.6											
CC(=O)Nc1ccc(S(=O)(=O)Nc2ccc(C3(c4ccc(NS(=O)(=O)c5ccc(NC(C)=O)cc5)cc4)c4ccccc4-c4ccccc43)cc2)cc1 [AN-329/40863801]		> 50	significantly reduced	~30	no significant effect	no significant effect	> 100					
CC#C[C@]1(O)CC[C@H]2[C@@H]3CCC4=CC(=O)CCC4=C3[C@@H](c3ccc(N(C)C)cc3)C[C@@]21C [Mifepristone]								reduced nuclear C staining	significantly reduced the titer	inhibitors of IMPα/β1 binding to HIV-1 integrase	anti-HIV-1 activity	active against VEEV
Ivermectin					reduced nuclear accumulation of both constructs	reduced nuclear accumulation of both constructs			reduced the titer to a lesser extent	inhibitors of IMPα/β1 binding to HIV-1 integrase	anti-HIV-1 activity	active against VEEV
